The record followed here is US20260355169A1, “METHODS OF TREATING CANCERS USING ISOQUINOLINE OR 6-AZA-QUINOLINE DERIVATIVES” (Black Diamond Therapeutics, Inc., priority 2022, published 2026).

SMILES strings stand for the structures.

The subject of the assay is BaF3 BRAF-KIAA1549 fusion cells. The experiment in a line: BaF3 BRAF-KIAA1549 fusion cell proliferation assay. As to conditions: Mus musculus, BaF3, 96 h, read-out: IC50, inhibition of cell growth, BaF3-BRAF:KIAA1549 Fusion. The format is cell-based. As to the method: Retroviral Production: The BRAF-KIAA1549 fusion mutant was subcloned into pMXs-IRES-Blasticidin (RTV-016, Cell Biolabs, San Diego, CA). […]. Briefly, HEK 293T cells were plated in Poly-D-lysine coated 6-well plate (2.5×10^5 cells per well) and incubated overnight. The next day, retroviral plasmids (1 μg of BRAF-KIAA fusion mutant, 0.32 μg of pCMV-Gag-Pol and 0.165 μg pCMV-VSV-G) were mixed in 300 μL of Optimem (31985, Life Technologies). The mixture was incubated at room temperature for 5 minutes and then added to Optimem containing transfection reagent Lipofectamine (11668, Invitrogen) and incubated for 20 minutes. The mixture was then added dropwise to HEK 293T cells. The next day the medium was replaced with fresh culture medium and retrovirus was harvested at 24 hours.
Generation of BRAF-KIAA1549 fusion stable cell line: BaF3 cells were plated in V-bottom 96 well plate (COSTAR #3894) in 80 μL of RPMI/10% FBS and 0.01 ng/mL mouse IL-3, supplemented with 8 μg/mL polybrene (4×10^4 cells/well). Cells were transduced with 20 μL of BRAF-KIAA1549 fusion viral supernatant by centrifuging for 30 minutes at 1000 rpm. Cells were placed in a 37 °C incubator overnight. Next day 100 μL of RPMI/10% FBS and 0.01 ng/mL mouse IL-3 was added. After 24 hours, 100 μL of cells were transferred to a 24 well plate containing 900 μL of RPMI/10% FBS and 15 μg/mL Blasticidin. Contents of the 24 well plate were sampled for cell viability via CellTiterGlo (Promega) over a 2-week period.
Assay for cell proliferation: BaF3 BRAF-KIAA1549 fusion cells were resuspended at 1.5×10^5 c/mL in RPMI containing 10% Heat Inactivated FBS, 1% L-glutamine and dispensed in duplicate ([…]) into 384 well plates. To determine the effect of compound on cell proliferation, BaF3 BRAF-KIAA1549 fusion cells were incubated for 96 hours in the presence of vehicle control (DMSO) or compound at varying concentrations. Inhibition of cell growth was determined by luminescent quantification (Envision by Perkin Elmer) of intracellular ATP content using CellTiterGlo (Promega), according to the protocol provided by the manufacturer. To determine the IC50 values, the vehicle-treated cells were normalized as viable cells and analyzed using the CDD Vault, Collaborative Drug Discovery, Burlingame, CA (the Levenberg-Marquardt algorithm; Levenberg, K, […]; Marquardt, D., 1963).
Table A assigns each compound a code for potency in the BaF3 BRAF-KIAA1549 fusion cell proliferation assay: A, B, C, or D. According to the code, A represents an IC50 value<20 nM; B represents an IC50 value≥20 nM and <100 nM; C represents an IC50 value≥100 nM and <500 nM; and D represents an IC50 value≥500 nM.
For orientation: IC50 means the point on the concentration scale where inhibition reaches its midpoint. Take `CNc1cc2ncc(-c3cc(NC(=O)c4cc(C(F)(F)F)ccn4)ccc3C)cc2cn1` [compound 1]: the 50% inhibitory concentration (IC50) was below 20 nM.
In the case of `CNc1cc2ncc(-c3cc(NC(=O)c4ccnc(C(F)(F)F)c4)ccc3C)cc2cn1` [compound 2], the IC50 was 20 to 100 nM.
Turning to `CNc1cc2ncc(-c3cc(NC(=O)c4cncc(C(F)(F)F)c4)ccc3C)cc2cn1` [compound 3], the IC50 is below 20 nM.
In the case of `CNc1cc2ncc(-c3cc(NC(=O)c4cccc(N(C)C)c4)ccc3C)cc2cn1` [compound 4] it was below 20 nM; in that of `CNc1cc2ncc(-c3cc(NC(=O)c4cc(C(F)(F)F)c(C)cn4)ccc3C)cc2cn1` [compound 5], 20 to 100 nM; in that of `CNc1cc2ncc(-c3cc(NC(=O)c4nccc(C(F)(F)F)c4Cl)ccc3C)cc2cn1` [compound 6], below 20 nM.
As to `CNc1cc2ncc(-c3cc(NC(=O)C[C@@H]4C[C@H](C(F)(F)F)CCO4)ccc3C)cc2cn1` [compound 7], the IC50 is below 20 nM.
As for `CNc1cc2ncc(-c3cc(NC(=O)c4ccnc(C(F)F)c4)ccc3C)cc2cn1` [compound 8], the half-inhibitory concentration (IC50) was 20 to 100 nM.
For `CNc1cc2ncc(-c3cc(NC(=O)c4ccnc(C(C)(F)F)c4)ccc3C)cc2cn1` [compound 9], the IC50 is below 20 nM.
With `CNc1cc2ncc(-c3cc(NC(=O)c4ccnc(C(C)(C)F)c4)ccc3C)cc2cn1` [compound 10], the IC50 was below 20 nM.
On to `CNc1cc2ncc(-c3cc(NC(=O)c4cc(C(F)F)ccn4)ccc3C)cc2cn1` [compound 11], for which the half-inhibitory concentration (IC50) lay in the range of 20 to 100 nM.
Take `CNc1cc2ncc(-c3cc(NC(=O)c4cc(C(C)(F)F)ccn4)ccc3C)cc2cn1` [compound 12]: the concentration for half-maximal inhibition (IC50) is 20 to 100 nM.
With `CNc1cc2ncc(-c3cc(NC(=O)c4cc(C(C)(C)F)ccn4)ccc3C)cc2cn1` [compound 13], the concentration for half-maximal inhibition (IC50) was 100 to 500 nM.
The figure for `CNc1cc2ncc(-c3cc(NC(=O)c4cc(C(C)(C)C#N)ccn4)ccc3C)cc2cn1` [compound 14] is below 20 nM; for `CNc1cc2ncc(-c3cc(NC(=O)c4cc(C5(C#N)CCC5)ccn4)ccc3C)cc2cn1` [compound 15] it is 20 to 100 nM.
As to `CNc1cc2ncc(-c3cc(NC(=O)c4cc(C5(C#N)CC5)ccn4)ccc3C)cc2cn1` [compound 16], the IC50 is below 20 nM.
As for `CNc1cc2ncc(-c3cc(NC(=O)c4ccnc(C5CC(F)(F)C5)c4)ccc3C)cc2cn1` [compound 17], the IC50 is below 20 nM.
For the compound `CNc1cc2ncc(-c3cc(NC(=O)c4ccnc(C5(F)CC5)c4)ccc3C)cc2cn1` [compound 18], the IC50 is below 20 nM.
Take `CNc1cc2ncc(-c3cc(NC(=O)c4cccc(N(C)C)c4)cnc3C)cc2cn1` [compound 19]: the IC50 was below 20 nM.
In the case of `CNc1cc2ncc(-c3cc(NC(=O)c4cc(C(F)(F)F)ccn4)cnc3C)cc2cn1` [compound 20], the IC50 is below 20 nM.
Take `CNc1cc2ncc(-c3cc(NC(=O)c4cncc(C(F)(F)F)c4)cnc3C)cc2cn1` [compound 21]: the half-maximal inhibitory concentration (IC50) lay in the range of 20 to 100 nM.
Turning to `CNc1cc2ncc(-c3cc(NC(=O)c4cc(C(F)F)ccn4)cnc3C)cc2cn1` [compound 22], the IC50 is 20 to 100 nM.
On to `CNc1cc2ncc(-c3cc(NC(=O)c4cc(C(C)(F)F)ccn4)cnc3C)cc2cn1` [compound 23], for which the IC50 lay within 20 to 100 nM.
Take `CNc1cc2ncc(-c3cc(NC(=O)c4ccnc(C(C)(C)F)c4)cnc3C)cc2cn1` [compound 24]: the IC50 was below 20 nM.
In the case of `CNc1cc2ncc(-c3cc(NC(=O)c4cc(C(F)(F)F)c(C)cn4)cnc3C)cc2cn1` [compound 25], the IC50 was in the range of 20 to 100 nM.
Turning to `CNc1cc2ncc(-c3cc(NC(=O)c4nccc(C(F)(F)F)c4Cl)cnc3C)cc2cn1` [compound 26], the IC50 lay in the range of 20 to 100 nM.
As to `CNc1cc2ncc(-c3cc(NC(=O)c4ccnc(C(F)(F)F)c4)cnc3C)cc2cn1` [compound 27], the IC50 is below 20 nM.
Consider `CNc1cc2ncc(-c3cc(NC(=O)c4ccnc(C(F)F)c4)cnc3C)cc2cn1` [compound 28], for which the half-inhibitory concentration (IC50) was in the range of 100 to 500 nM.
`CNc1cc2ncc(-c3cc(NC(=O)c4ccnc(C(C)(F)F)c4)cnc3C)cc2cn1` [compound 29]: the IC50 was below 20 nM.
In the case of `CNc1cc2ncc(-c3cc(NC(=O)c4cc(C(C)(C)C#N)ccn4)cnc3C)cc2cn1` [compound 30] it was 20 to 100 nM; in that of `CNc1cc2ncc(-c3cc(NC(=O)c4cc(C5(C#N)CCC5)ccn4)cnc3C)cc2cn1` [compound 31], 20 to 100 nM; in that of `CNc1cc2ncc(-c3cc(NC(=O)c4cc(C5(C#N)CC5)ccn4)cnc3C)cc2cn1` [compound 32], below 20 nM.
As to `CNc1cc2ncc(-c3cc(NC(=O)c4ccnc(C5(F)CC5)c4)cnc3C)cc2cn1` [compound 33], the concentration for half-maximal inhibition (IC50) is below 20 nM.
As to `CNc1cc2ncc(-c3cc(NC(=O)c4ccnc(C5CC(F)(F)C5)c4)cnc3C)cc2cn1` [compound 34], the IC50 lay within 20 to 100 nM.
In the case of `CNc1cc2ncc(-c3cc(NC(=O)C[C@@H]4C[C@H](C(F)(F)F)CCO4)cnc3C)cc2cn1` [compound 35] it was 20 to 100 nM; in that of `CNc1cc2ncc(-c3cc(NC(=O)C[C@H]4C[C@H](C(F)(F)F)CCO4)cnc3C)cc2cn1` [compound 36], 100 to 500 nM.
In the case of `CNc1cc2ncc(-c3cc(NC(=O)c4cc(C(C)(C)C#N)ccn4)c(F)cc3Cl)cc2cn1` [compound 37] it was 20 to 100 nM; in that of `CNc1cc2ncc(-c3cc(NC(=O)c4cc(C(C)(C)C#N)ccn4)cc(F)c3C)cc2cn1` [compound 38], 20 to 100 nM; in that of `CNc1cc2ncc(-c3cc(NC(=O)c4cc(C(C)(C)C#N)ccn4)cc(F)c3F)cc2cn1` [compound 39], 20 to 100 nM.
As to `CNc1cc2ncc(-c3cc(NC(=O)c4cc(C(C)(C)C#N)ccn4)ccc3F)cc2cn1` [compound 40], the concentration for half-maximal inhibition (IC50) is 20 to 100 nM.
For the compound `CNc1cc2ncc(-c3cc(NC(=O)c4cc(C(C)(C)C#N)ccn4)ccc3Cl)cc2cn1` [compound 41], the IC50 is 20 to 100 nM.
For `CNc1cc2ncc(-c3cc(NC(=O)c4cc(C(C)(C)C#N)ccn4)c(F)cc3C)cc2cn1` [compound 42], the half-maximal inhibitory concentration (IC50) was 20 to 100 nM.
In the case of `CNc1cc2ncc(-c3cc(NC(=O)c4cc(C(C)(C)C#N)ccn4)c(F)cc3F)cc2cn1` [compound 43], the IC50 fell in the range of 20 to 100 nM.
With `CNc1cc2ncc(-c3cc(NC(=O)c4cc(C(C)(C)C#N)ccn4)cc(F)c3Cl)cc2cn1` [compound 44], the IC50 is 20 to 100 nM.
For the compound `CNc1cc2ncc(-c3ccc(F)c(NC(=O)c4cc(C(C)(C)C#N)ccn4)c3)cc2cn1` [compound 45], the half-maximal inhibitory concentration (IC50) was 100 to 500 nM.
In the case of `CNc1cc2ncc(-c3cc(F)c(F)c(NC(=O)c4cc(C(C)(C)C#N)ccn4)c3)cc2cn1` [compound 46], the IC50 is 100 to 500 nM.
As to `CNc1cc2ncc(-c3cc(F)cc(NC(=O)c4cc(C(C)(C)C#N)ccn4)c3)cc2cn1` [compound 47], the IC50 lay in the range of 100 to 500 nM.
The figure for `CNc1cc2ncc(-c3cc(NC(=O)c4cc(C(C)(C)C#N)ccn4)cc(Cl)c3C)cc2cn1` [compound 48] is above 500 nM; for `CNc1cc2ncc(-c3cc(NC(=O)c4cc(C(C)(C)C#N)ccn4)cnn3)cc2cn1` [compound 49] it is below 20 nM.
In the case of `CNc1cc2ncc(-c3cc(NC(=O)c4cc(C(C)(C)C#N)ccn4)c(Cl)cc3C)cc2cn1` [compound 50] it was 100 to 500 nM; in that of `CNc1cc2ncc(-c3cc(NC(=O)c4cc(C(C)(C)C#N)ccn4)c(F)c(F)c3C)cc2cn1` [compound 51], above 500 nM.
`CNc1cc2ncc(-c3cc(NC(=O)c4nccc(C(F)(F)F)c4F)cnc3C)cc2cn1` [compound 52]: the IC50 is below 20 nM.
Regarding `CNc1cc2ncc(-c3cc(C(=O)Nc4cc(C(C)(C)C#N)ccn4)ccc3C)cc2cn1` [compound 53], the IC50 was in the range of 20 to 100 nM.
In the case of `CNc1cc2ncc(-c3cc(NC(=O)c4ccnc(C(C)(C)C#N)c4)cnc3C)cc2cn1` [compound 55] it was below 20 nM; in that of `CNc1cc2ncc(-c3cc(NC(=O)c4ccnc(C(C)(C)C#N)c4)ccc3C)cc2cn1` [compound 56], 20 to 100 nM; in that of `CNc1cc2ncc(-c3cc(NC(=O)c4ccnc(C(C)C)c4)cnc3C)cc2cn1` [compound 57], below 20 nM.
Consider `CNc1ncc2cc(-c3cc(NC(=O)c4ccnc(C(C)(C)C)c4)cnc3C)cnc2n1` [compound 58], for which the IC50 lay within 20 to 100 nM.
